The record followed here is US20190225650A1, “PEPTIDOMIMETIC MACROCYCLES AND USE THEREOF IN REGULATING HIF1ALPHA” (AILERON THERAPEUTICS, INC., priority 2013, published 2019).

Bridge positions count the residues as written; N and C are the ends. Square brackets hold non-standard residues; d marks the D form. Peptide text beside a SMILES is read from it. R5 = C=CCCC[C@@](C)(N)C(=O)O; S5 = C=CCCC[C@](C)(N)C(=O)O; Nle = CCCC[C@H](N)C(=O)O; Dap = NC[C@H](N)C(=O)O Bounds are passed on as bounds.

This experiment concerns HRE-bla ME-180 cells. Description: Reporter gene assay (HRE-bla ME-180 HIF reporter, GeneBLAzer). It is filed as cell-based, human. The settings on record: for EC50: 24 hour normoxia. In a few lines: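 A FRET β-lactamase readout of HIF transcription was used. After compound treatment in 0.3% DMSO/media under normoxic conditions, 20 μl of 6× LiveBLAzer-FRET B/G (CCF4-AM) substrate was added. Plates sat 3 hr at room temperature in the dark and were read at 409 Ex/460Em and 409Ex/530Em on a Synergy 2. Inhibition was compared against DMSO vehicle controls, with chetomin as positive control.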

By EC50 is commonly meant the midpoint of the concentration-response curve. Take `CC[C@H](C)[C@H](NC(=O)[C@H](CCCNC(=N)N)NC(=O)[C@H](CC(=O)O)NC(=O)[C@H](CC(C)C)NC(=O)[C@H](C)NC(=O)[C@H](C)NC(=O)[C@]1(C)CCCC=CCCC[C@](C)(NC(=O)[C@H](C)NC(=O)[C@H](CC(C)C)NC(=O)[C@@H](NC(=O)[C@H](CCC(=O)O)NC(=O)[C@H](CCC(=O)O)NC(=O)[C@H](CC(=O)O)NC(=O)[C@@H](NC(=O)[C@H](Cc2ccccc2)NC(C)=O)[C@@H](C)CC)C(C)C)C(=O)N[C@@H](CC(C)C)C(=O)N[C@@H](C(C)C)C(=O)N[C@@H]([C@@H](C)CC)C(=O)N1)C(N)=O` [SP-26] (Ac-FIDEEVLA[S5]LVI[S5]AALDRI-NH2; staple 9-13): the “18 h Avg % max inhibition at top conc (HIF Rptr-24 hrs normoxia) (μM)” value (from here on “18 h Avg % max inhibition at top conc”) is reported as “++++ (≥50: ++++)” and the EC50 fell in the range of 5 to 15 µM.

In the case of `CCCC[C@H](NC(=O)[C@H](CC(C)C)NC(=O)[C@@H](NC(=O)[C@H](CCC(=O)O)NC(=O)[C@H](CCC(=O)O)NC(=O)[C@H](CC(=O)O)NC(=O)[C@@H](NC(=O)[C@H](Cc1ccccc1)NC(C)=O)[C@@H](C)CC)C(C)C)C(=O)N[C@@]1(C)CCCC=CCCC[C@@](C)(C(=O)N[C@@H](CCCC)C(=O)N[C@@H](C)C(=O)N[C@@H](CC(C)C)C(=O)N[C@@H](CC(=O)O)C(=O)N[C@@H](CCCNC(=N)N)C(=O)N[C@H](C(N)=O)[C@@H](C)CC)NC(=O)[C@H](CN)NC(=O)[C@H](C(C)C)NC(=O)[C@H](CC(C)C)NC1=O` [SP-65] (Ac-FIDEEVL[Nle][S5]LV[Dap][S5][Nle]ALDRI-NH2; staple 9-13), the “18 h Avg % max inhibition at top conc” value is on record as “+ (<10: +)” and the 50% effective concentration (EC50) was greater than 30 µM. On to `CC[C@H](C)[C@H](NC(=O)[C@H](Cc1ccccc1)NC(C)=O)C(=O)N[C@@H](CC(=O)O)C(=O)N[C@@H](CCC(=O)O)C(=O)N[C@@H](CCC(=O)O)C(=O)N[C@H](C(=O)N[C@@H](CC(C)C)C(=O)N[C@@H](CCSC)C(=O)N[C@@]1(C)CCCC=CCCC[C@@](C)(C(=O)N[C@@H](CCSC)C(=O)N[C@@H](C)C(=O)N[C@@H](CC(C)C)C(=O)N[C@@H](CC(=O)O)C(=O)N[C@@H](CCCNC(=N)N)C(=O)N[C@H](C(=O)N[C@@H](CCCCN)C(=O)N[C@@H](CCC(=O)O)C(=O)N[C@@H](CC(C)C)C(=O)N2CCC[C@H]2C(=O)N[C@@H](CCC(=O)O)C(=O)N[C@@H](CC(C)C)C(=O)N[C@@H](Cc2c[nH]c3ccccc23)C(=O)N[C@@H](CC(C)C)C(N)=O)[C@@H](C)CC)NC(=O)[C@H]([C@@H](C)CC)NC(=O)[C@H](C(C)C)NC(=O)[C@H](CC(C)C)NC1=O)C(C)C` [SP-3] (Ac-FIDEEVLM[S5]LVI[S5]MALDRIKELPELWL-NH2; staple 9-13), for which the “18 h Avg % max inhibition at top conc” value is given as “+++ (≤25 but <50: +++)” and the half-maximal effective concentration (EC50) is greater than 30 µM. On the same counts, the results for `CCCC[C@H](NC(=O)[C@H](CC(C)C)NC(=O)[C@@H](NC(=O)[C@H](CCC(=O)O)NC(=O)[C@H](CCC(=O)O)NC(=O)[C@H](CC(=O)O)NC(=O)[C@@H](NC(=O)[C@H](Cc1ccccc1)NC(C)=O)[C@@H](C)CC)C(C)C)C(=O)N[C@@]1(C)CCCC=CCCC[C@@](C)(C(=O)N[C@@H](CCCC)C(=O)N[C@@H](C)C(=O)N[C@@H](CC(C)C)C(=O)N[C@@H](CO)C(=O)N[C@@H](CCCNC(=N)N)C(=O)N[C@H](C(N)=O)[C@@H](C)CC)NC(=O)[C@H]([C@@H](C)CC)NC(=O)[C@H](C(C)C)NC(=O)[C@H](CC(C)C)NC1=O` [SP-57] (Ac-FIDEEVL[Nle][S5]LVI[S5][Nle]ALSRI-NH2; staple 9-13) are “++++ (≥50: ++++)” and 5 to 15 µM.

Consider `CCCC[C@H](NC(=O)[C@H](CCC(=O)O)NC(=O)[C@@H](NC(=O)[C@@H](NC(=O)[C@H](CC(C)C)NC(=O)[C@]1(C)CCCC=CCCC[C@](C)(NC(=O)[C@H](CCC(=O)O)NC(=O)[C@H](CC(=O)O)NC(=O)[C@@H](NC(=O)[C@H](Cc2ccccc2)NC(C)=O)[C@@H](C)CC)C(=O)N[C@@H](C(C)C)C(=O)N[C@@H](CC(C)C)C(=O)N[C@@H](CCCC)C(=O)N1)C(C)C)[C@@H](C)CC)C(=O)N[C@@H](C)C(=O)N[C@@H](CC(C)C)C(=O)N[C@@H](CC(=O)O)C(=O)N[C@@H](CCCNC(=N)N)C(=O)N[C@H](C(=O)N[C@@H](CCCCN)C(=O)N[C@@H](CCC(=O)O)C(=O)N[C@@H](CC(C)C)C(=O)N1CCC[C@H]1C(=O)N[C@@H](CCC(=O)O)C(=O)N[C@@H](CC(C)C)C(=O)N[C@@H](Cc1c[nH]c2ccccc12)C(=O)N[C@@H](CC(C)C)C(N)=O)[C@@H](C)CC` [SP-106] (Ac-FIDE[S5]VL[Nle][S5]LVIE[Nle]ALDRIKELPELWL-NH2; staple 5-9), for which the EC50 was greater than 30 µM.

With `CCCC[C@H](NC(=O)[C@H](CCC(=O)O)NC(=O)[C@@H](NC(=O)[C@H](CCC(=O)O)NC(=O)[C@H](CCC(=O)O)NC(=O)[C@H](CC(=O)O)NC(=O)[C@@H](NC(=O)[C@H](Cc1ccccc1)NC(C)=O)[C@@H](C)CC)C(C)C)C(=O)N[C@@]1(C)CCCC=CCCC[C@@](C)(C(=O)N[C@@H](CCCC)C(=O)N[C@@H](C)C(=O)N[C@@H](CC(C)C)C(=O)N[C@@H](CC(=O)O)C(=O)N[C@@H](CCCNC(=N)N)C(=O)N[C@H](C(N)=O)[C@@H](C)CC)NC(=O)[C@H]([C@@H](C)CC)NC(=O)[C@H](C(C)C)NC(=O)[C@H](CC(C)C)NC1=O` [SP-33] (Ac-FIDEEVE[Nle][S5]LVI[S5][Nle]ALDRI-NH2; staple 9-13), the “18 h Avg % max inhibition at top conc” value is on record as “+++ (≤25 but <50: +++)” and the EC50 is greater than 30 µM. On the same counts, the results for `CCCC[C@H](NC(=O)[C@H](CC(C)C)NC(=O)[C@@H](NC(=O)[C@H](CCC(=O)O)NC(=O)[C@H](CCC(=O)O)NC(=O)[C@H](CC(=O)O)NC(=O)[C@@H](NC(=O)[C@H](Cc1ccccc1)NC(C)=O)[C@@H](C)CC)C(C)C)C(=O)N[C@]1(C)CCCC=CCCC[C@](C)(C(=O)N[C@@H](CCCC)C(=O)N[C@@H](C)C(=O)N[C@@H](CC(C)C)C(=O)N[C@@H](CC(=O)O)C(=O)N[C@@H](CCCNC(=N)N)C(=O)N[C@H](C(N)=O)[C@@H](C)CC)NC(=O)[C@H]([C@@H](C)CC)NC(=O)[C@H](C(C)C)NC(=O)[C@H](CC(C)C)NC1=O` [SP-296] (Ac-FIDEEVL[Nle][R5]LVI[R5][Nle]ALDRI-NH2; staple 9-13) are “++++ (≥50: ++++)” and no more than 5 µM.

As for `CCCC[C@H](NC(=O)[C@H](C)NC(=O)[C@@H](NC(=O)[C@H](CCC(=O)O)NC(=O)[C@H](CCC(=O)O)NC(=O)[C@H](CC(=O)O)NC(=O)[C@@H](NC(=O)[C@H](Cc1ccccc1)NC(C)=O)[C@@H](C)CC)C(C)C)C(=O)N[C@@]1(C)CCCC=CCCC[C@@](C)(C(=O)N[C@@H](CCCC)C(=O)N[C@@H](C)C(=O)N[C@@H](CC(C)C)C(=O)N[C@@H](CC(=O)O)C(=O)N[C@@H](CCCNC(=N)N)C(=O)N[C@H](C(N)=O)[C@@H](C)CC)NC(=O)[C@H]([C@@H](C)CC)NC(=O)[C@H](C(C)C)NC(=O)[C@H](CC(C)C)NC1=O` [SP-15] (Ac-FIDEEVA[Nle][S5]LVI[S5][Nle]ALDRI-NH2; staple 9-13), the “18 h Avg % max inhibition at top conc” value is given as “++++ (≥50: ++++)” and the EC50 was no more than 5 µM. On the same counts, the results for `CCCC[C@H](NC(=O)[C@H](CC(C)C)NC(=O)[C@@H](NC(=O)[C@H](CCC(=O)O)NC(=O)[C@H](CCC(=O)O)NC(=O)[C@H](CC(=O)O)NC(=O)[C@@H](NC(=O)[C@H](Cc1ccccc1)NC(C)=O)[C@@H](C)CC)C(C)C)C(=O)N[C@@]1(C)CCCC=CCCC[C@@](C)(C(=O)N[C@@H](CO)C(=O)N[C@@H](C)C(=O)N[C@@H](CC(C)C)C(=O)N[C@@H](CC(=O)O)C(=O)N[C@@H](CCCNC(=N)N)C(=O)N[C@H](C(N)=O)[C@@H](C)CC)NC(=O)[C@H]([C@@H](C)CC)NC(=O)[C@H](C(C)C)NC(=O)[C@H](CC(C)C)NC1=O` [SP-54] (Ac-FIDEEVL[Nle][S5]LVI[S5]SALDRI-NH2; staple 9-13) are “++++ (≥50: ++++)” and no more than 5 µM. On the same counts, the results for `CCCC[C@H](NC(=O)[C@H](CC(C)C)NC(=O)[C@@H](NC(=O)[C@H](CCC(=O)O)NC(=O)[C@H](CCC(=O)O)NC(=O)[C@H](CC(=O)O)NC(=O)[C@@H](NC(=O)[C@H](Cc1ccccc1)NC(C)=O)[C@@H](C)CC)C(C)C)C(=O)N[C@@]1(C)CCCC=CCCC[C@@](C)(C(=O)N[C@@H](CCCC)C(=O)N[C@@H](CCC(=O)O)C(=O)N[C@@H](CC(C)C)C(=O)N[C@@H](CC(=O)O)C(=O)N[C@@H](CCCNC(=N)N)C(=O)N[C@H](C(N)=O)[C@@H](C)CC)NC(=O)[C@H]([C@@H](C)CC)NC(=O)[C@H](C(C)C)NC(=O)[C@H](CC(C)C)NC1=O` [SP-39] (Ac-FIDEEVL[Nle][S5]LVI[S5][Nle]ELDRI-NH2; staple 9-13) are “+++ (≤25 but <50: +++)” and 15 to 30 µM. For the compound `CCCC[C@H](NC(=O)[C@H](CC(C)C)NC(=O)[C@@H](NC(=O)[C@H](CCC(=O)O)NC(=O)[C@H](CCC(=O)O)NC(=O)[C@H](CC(=O)O)NC(=O)[C@@H](NC(=O)[C@H](Cc1ccccc1)NC(C)=O)[C@@H](C)CC)C(C)C)C(=O)N[C@@]1(C)CCCC=CCCC[C@@](C)(C(=O)N[C@@H](CCCC)C(=O)N[C@@H](C)C(=O)N[C@@H](CC(C)C)C(=O)N[C@@H](CC(=O)O)C(=O)N[C@@H](CCCNC(=N)N)C(=O)N[C@@H](CCC(=O)O)C(N)=O)NC(=O)[C@H]([C@@H](C)CC)NC(=O)[C@H](C(C)C)NC(=O)[C@H](CC(C)C)NC1=O` [SP-42] (Ac-FIDEEVL[Nle][S5]LVI[S5][Nle]ALDRE-NH2; staple 9-13), the “18 h Avg % max inhibition at top conc” value is given as “++ (≤10 but <25: ++)” and the EC50 is greater than 30 µM.
